Experimental findings from ChEMBL document CHEMBL4304811, “Development of a Water-Soluble Indolylmaleimide Derivative IM-93 Showing Dual Inhibition of Ferroptosis and NETosis” (ACS Med Chem Lett, 2019) are described below.

Test [1] concerns the target cAMP-dependent protein kinase catalytic subunit beta (Homo sapiens) (UniProt P22694). Kind of test: Binding affinity to wild-type human full length PKAC-beta (M1 to F351 residues) expressed in bacterial expression system assessed as residual binding level at 10 uM by Kinomescan method relative to control.
For test [2], the target named is Serine/threonine-protein kinase 16 (Homo sapiens) (UniProt O75716). Kind of test: Binding affinity to wild-type human partial length STK16 (G11 to I305 residues) expressed in bacterial expression system assessed as residual binding level at 10 uM by Kinomescan method relative to control.
Chain of Serine/threonine-protein kinase 16 (Homo sapiens) (O75716 whole entry, the tested form may be a part): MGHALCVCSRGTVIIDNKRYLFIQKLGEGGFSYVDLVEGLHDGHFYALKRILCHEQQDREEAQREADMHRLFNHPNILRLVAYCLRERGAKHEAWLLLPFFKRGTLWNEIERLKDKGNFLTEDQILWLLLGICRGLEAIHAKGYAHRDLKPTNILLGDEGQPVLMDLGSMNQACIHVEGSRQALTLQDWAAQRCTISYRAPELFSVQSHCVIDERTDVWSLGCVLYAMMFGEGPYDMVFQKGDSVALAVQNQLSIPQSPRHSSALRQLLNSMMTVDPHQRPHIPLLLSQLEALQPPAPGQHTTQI
In test [3] the target is Ephrin type-B receptor 6 (Homo sapiens) (UniProt O15197). Kind of test: Binding affinity to wild-type human partial length EPHB6 (Q634 to P948 residues) expressed in mammalian expression system assessed as residual binding level at 10 uM by Kinomescan method relative to control.
Chain of Ephrin type-B receptor 6 (Homo sapiens) (O15197 whole entry, the tested form may be a part): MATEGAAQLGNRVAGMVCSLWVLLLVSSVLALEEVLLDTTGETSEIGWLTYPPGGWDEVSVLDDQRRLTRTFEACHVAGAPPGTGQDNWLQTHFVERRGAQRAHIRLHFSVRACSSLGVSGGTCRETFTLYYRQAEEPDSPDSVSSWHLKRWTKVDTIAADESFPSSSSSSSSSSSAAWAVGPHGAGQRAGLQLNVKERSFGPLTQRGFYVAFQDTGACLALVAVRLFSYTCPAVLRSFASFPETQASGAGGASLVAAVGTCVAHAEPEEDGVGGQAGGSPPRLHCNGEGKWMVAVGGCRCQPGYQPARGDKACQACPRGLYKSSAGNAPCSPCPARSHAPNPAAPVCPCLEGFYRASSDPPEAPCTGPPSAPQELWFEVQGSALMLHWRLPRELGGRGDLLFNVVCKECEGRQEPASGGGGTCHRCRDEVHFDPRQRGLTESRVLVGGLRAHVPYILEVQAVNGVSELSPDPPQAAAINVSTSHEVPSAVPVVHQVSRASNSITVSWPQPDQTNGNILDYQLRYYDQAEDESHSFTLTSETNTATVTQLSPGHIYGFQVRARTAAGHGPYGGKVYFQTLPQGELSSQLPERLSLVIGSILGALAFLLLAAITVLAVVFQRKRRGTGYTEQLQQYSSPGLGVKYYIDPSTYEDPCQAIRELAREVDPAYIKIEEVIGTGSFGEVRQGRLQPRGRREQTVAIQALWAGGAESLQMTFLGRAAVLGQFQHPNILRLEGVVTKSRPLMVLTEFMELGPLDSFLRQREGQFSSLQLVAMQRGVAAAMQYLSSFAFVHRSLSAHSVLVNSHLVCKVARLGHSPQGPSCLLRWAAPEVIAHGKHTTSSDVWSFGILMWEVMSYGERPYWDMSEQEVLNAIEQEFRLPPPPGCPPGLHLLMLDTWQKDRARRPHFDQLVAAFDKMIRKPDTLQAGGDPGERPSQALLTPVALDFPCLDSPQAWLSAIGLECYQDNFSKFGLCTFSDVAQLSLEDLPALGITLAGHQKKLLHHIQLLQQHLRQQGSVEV
Test [4] has as its target Mitogen-activated protein kinase kinase kinase 13 (Homo sapiens) (UniProt O43283). Kind of test: Binding affinity to wild-type human full length LZK (M1 to W966 residues) expressed in mammalian expression system assessed as residual binding level at 10 uM by Kinomescan method relative to control.
For test [5], the target named is Uncharacterized serine/threonine-protein kinase SBK3 (Homo sapiens) (UniProt P0C264). Kind of test: Binding affinity to wild-type human partial length SgK110 (L22 to R329 residues) expressed in bacterial expression system assessed as residual binding level at 10 uM by Kinomescan method relative to control.
Chain of Uncharacterized serine/threonine-protein kinase SBK3 (Homo sapiens) (P0C264 whole entry, the tested form may be a part): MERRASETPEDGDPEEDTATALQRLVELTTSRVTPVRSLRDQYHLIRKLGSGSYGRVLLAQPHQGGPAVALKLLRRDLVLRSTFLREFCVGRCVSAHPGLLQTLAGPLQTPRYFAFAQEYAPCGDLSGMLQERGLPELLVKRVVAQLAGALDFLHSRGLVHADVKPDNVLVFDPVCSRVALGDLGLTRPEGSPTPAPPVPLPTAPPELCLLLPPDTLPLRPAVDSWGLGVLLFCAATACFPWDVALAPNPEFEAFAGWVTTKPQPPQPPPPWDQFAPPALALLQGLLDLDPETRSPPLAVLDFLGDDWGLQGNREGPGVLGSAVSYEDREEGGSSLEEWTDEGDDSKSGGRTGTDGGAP
Test [6] has as its system Epidermal growth factor receptor (Homo sapiens), P00533 [L861Q]. Kind of test: Binding affinity to human partial length EGFR L861Q mutant (R669 to V1011 residues) expressed in bacterial expression system assessed as residual binding level at 10 uM by Kinomescan method relative to control.
The target in test [7] is Serine/threonine-protein kinase Sgk3 (Homo sapiens) (UniProt Q96BR1). Kind of test: Binding affinity to wild-type human partial length SGK3 (M119 to L496 residues) expressed in mammalian expression system assessed as residual binding level at 10 uM by Kinomescan method relative to control.
Chain of Serine/threonine-protein kinase Sgk3 (Homo sapiens) (Q96BR1 whole entry, the tested form may be a part): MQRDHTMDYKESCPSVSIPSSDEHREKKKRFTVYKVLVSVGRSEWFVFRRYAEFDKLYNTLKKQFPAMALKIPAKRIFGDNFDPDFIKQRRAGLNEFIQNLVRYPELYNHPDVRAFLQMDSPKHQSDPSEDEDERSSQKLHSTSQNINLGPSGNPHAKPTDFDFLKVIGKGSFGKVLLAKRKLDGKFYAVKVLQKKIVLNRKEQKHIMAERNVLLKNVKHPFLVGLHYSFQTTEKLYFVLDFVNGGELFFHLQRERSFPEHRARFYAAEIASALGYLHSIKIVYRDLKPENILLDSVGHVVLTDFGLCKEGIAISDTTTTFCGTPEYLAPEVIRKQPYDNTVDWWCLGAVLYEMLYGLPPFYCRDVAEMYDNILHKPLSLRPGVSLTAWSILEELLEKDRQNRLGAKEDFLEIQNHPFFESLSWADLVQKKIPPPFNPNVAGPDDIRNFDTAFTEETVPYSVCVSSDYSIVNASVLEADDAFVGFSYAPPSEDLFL
For test [8], the target named is Serine/threonine-protein kinase SIK3 (Homo sapiens) (UniProt Q9Y2K2). Kind of test: Binding affinity to wild-type human partial length QSK (A90 to L395 residues) expressed in mammalian expression system assessed as residual binding level at 10 uM by Kinomescan method relative to control.
The target of test [9] is Inhibitor of nuclear factor kappa-B kinase subunit epsilon (Homo sapiens) (UniProt Q14164). Kind of test: Binding affinity to wild-type human full length IKK-epsilon (M1 to V716 residues) expressed in mammalian expression system assessed as residual binding level at 10 uM by Kinomescan method relative to control.
Chain of Inhibitor of nuclear factor kappa-B kinase subunit epsilon (Homo sapiens) (Q14164 whole entry, the tested form may be a part): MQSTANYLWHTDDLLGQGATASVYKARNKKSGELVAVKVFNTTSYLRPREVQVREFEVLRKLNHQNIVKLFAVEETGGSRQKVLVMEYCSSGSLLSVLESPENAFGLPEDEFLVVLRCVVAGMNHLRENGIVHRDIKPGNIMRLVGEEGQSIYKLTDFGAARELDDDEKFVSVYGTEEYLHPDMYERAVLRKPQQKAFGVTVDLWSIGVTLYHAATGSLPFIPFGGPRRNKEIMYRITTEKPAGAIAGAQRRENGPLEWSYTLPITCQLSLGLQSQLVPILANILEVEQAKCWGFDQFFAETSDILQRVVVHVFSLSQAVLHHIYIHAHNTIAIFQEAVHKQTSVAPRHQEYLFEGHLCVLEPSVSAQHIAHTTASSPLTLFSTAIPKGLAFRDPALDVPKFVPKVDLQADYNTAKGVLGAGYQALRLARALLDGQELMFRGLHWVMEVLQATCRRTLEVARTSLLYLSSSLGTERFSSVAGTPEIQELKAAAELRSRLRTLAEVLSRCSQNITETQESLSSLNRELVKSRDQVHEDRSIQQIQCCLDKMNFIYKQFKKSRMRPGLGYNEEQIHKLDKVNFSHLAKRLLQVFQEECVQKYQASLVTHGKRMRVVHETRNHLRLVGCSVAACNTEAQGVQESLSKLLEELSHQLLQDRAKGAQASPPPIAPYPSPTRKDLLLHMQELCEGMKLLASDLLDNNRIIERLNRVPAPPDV
Test [10] deals with Tyrosine-protein kinase Lyn (Homo sapiens) (UniProt P07948). Kind of test: Binding affinity to wild-type human partial length LYN (C219 to Q511 residues) expressed in bacterial expression system assessed as residual binding level at 10 uM by Kinomescan method relative to control.
Test [11] addresses TRAF2 and NCK-interacting protein kinase (Homo sapiens) (UniProt Q9UKE5). Kind of test: Binding affinity to wild-type human partial length TNIK (D4 to K311 residues) expressed in bacterial expression system assessed as residual binding level at 10 uM by Kinomescan method relative to control.
In test [12] the target is Myosin light chain kinase (Homo sapiens) (UniProt Q32MK0). Kind of test: Binding affinity to wild-type human partial length MLCK (D488 to K800 residues) expressed in bacterial expression system assessed as residual binding level at 10 uM by Kinomescan method relative to control.
Chain of Myosin light chain kinase (Homo sapiens) (Q32MK0 whole entry, the tested form may be a part): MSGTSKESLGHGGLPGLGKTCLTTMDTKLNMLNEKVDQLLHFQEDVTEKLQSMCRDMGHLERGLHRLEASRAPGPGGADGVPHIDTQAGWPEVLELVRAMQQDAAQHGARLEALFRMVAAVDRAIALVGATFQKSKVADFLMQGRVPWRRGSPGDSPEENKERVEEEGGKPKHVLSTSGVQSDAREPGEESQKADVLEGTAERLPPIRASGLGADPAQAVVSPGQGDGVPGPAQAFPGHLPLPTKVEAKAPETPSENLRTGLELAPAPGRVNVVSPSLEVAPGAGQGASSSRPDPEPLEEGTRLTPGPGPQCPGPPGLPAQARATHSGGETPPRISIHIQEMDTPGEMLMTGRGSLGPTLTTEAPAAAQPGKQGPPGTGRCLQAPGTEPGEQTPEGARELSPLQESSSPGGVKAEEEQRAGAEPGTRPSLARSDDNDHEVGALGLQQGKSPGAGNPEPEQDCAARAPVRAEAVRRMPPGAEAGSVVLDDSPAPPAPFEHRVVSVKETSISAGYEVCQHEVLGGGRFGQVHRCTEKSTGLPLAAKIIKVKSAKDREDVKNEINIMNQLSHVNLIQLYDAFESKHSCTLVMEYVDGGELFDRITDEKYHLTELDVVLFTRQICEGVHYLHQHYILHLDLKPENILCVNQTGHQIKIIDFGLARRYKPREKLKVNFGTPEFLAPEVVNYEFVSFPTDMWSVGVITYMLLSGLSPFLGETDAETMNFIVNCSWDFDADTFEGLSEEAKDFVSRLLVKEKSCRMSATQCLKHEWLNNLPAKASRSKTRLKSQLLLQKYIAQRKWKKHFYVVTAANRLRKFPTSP
In test [13] the target is cAMP-dependent protein kinase catalytic subunit PRKX (Homo sapiens) (UniProt P51817). Kind of test: Binding affinity to wild-type human partial length PRKX (M1 to F358 residues) expressed in bacterial expression system assessed as residual binding level at 10 uM by Kinomescan method relative to control.
Chain of cAMP-dependent protein kinase catalytic subunit PRKX (Homo sapiens) (P51817 whole entry, the tested form may be a part): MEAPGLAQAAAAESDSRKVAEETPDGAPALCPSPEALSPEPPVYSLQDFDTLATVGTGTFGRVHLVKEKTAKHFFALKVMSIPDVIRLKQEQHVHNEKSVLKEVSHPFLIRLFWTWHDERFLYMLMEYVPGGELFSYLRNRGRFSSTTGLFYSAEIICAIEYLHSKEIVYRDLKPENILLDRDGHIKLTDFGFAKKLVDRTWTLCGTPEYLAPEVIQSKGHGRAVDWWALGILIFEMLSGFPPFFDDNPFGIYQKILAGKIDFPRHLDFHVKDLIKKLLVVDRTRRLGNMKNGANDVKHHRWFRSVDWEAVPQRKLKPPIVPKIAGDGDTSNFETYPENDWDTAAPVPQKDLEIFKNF
The target of test [14] is Serine/threonine-protein kinase RIO2 (Homo sapiens) (UniProt Q9BVS4). Kind of test: Binding affinity to wild-type human partial length RIOK2 (M1 to D313 residues) expressed in mammalian expression system assessed as residual binding level at 10 uM by Kinomescan method relative to control.
For test [15], the target named is Tyrosine-protein kinase ABL2 (Homo sapiens) (UniProt P42684). Kind of test: Binding affinity to wild-type human ABL2 (A248 to G542 residues) expressed in bacterial expression system assessed as residual binding level at 10 uM by Kinomescan method relative to control.
The target of test [16] is Cyclin-dependent kinase 8 (Homo sapiens) (UniProt P49336). Kind of test: Binding affinity to wild-type human partial length CDK8 (M1 to T360 residues) expressed in bacterial expression system assessed as residual binding level at 10 uM by Kinomescan method relative to control.
Chain of Cyclin-dependent kinase 8 (Homo sapiens) (P49336 whole entry, the tested form may be a part): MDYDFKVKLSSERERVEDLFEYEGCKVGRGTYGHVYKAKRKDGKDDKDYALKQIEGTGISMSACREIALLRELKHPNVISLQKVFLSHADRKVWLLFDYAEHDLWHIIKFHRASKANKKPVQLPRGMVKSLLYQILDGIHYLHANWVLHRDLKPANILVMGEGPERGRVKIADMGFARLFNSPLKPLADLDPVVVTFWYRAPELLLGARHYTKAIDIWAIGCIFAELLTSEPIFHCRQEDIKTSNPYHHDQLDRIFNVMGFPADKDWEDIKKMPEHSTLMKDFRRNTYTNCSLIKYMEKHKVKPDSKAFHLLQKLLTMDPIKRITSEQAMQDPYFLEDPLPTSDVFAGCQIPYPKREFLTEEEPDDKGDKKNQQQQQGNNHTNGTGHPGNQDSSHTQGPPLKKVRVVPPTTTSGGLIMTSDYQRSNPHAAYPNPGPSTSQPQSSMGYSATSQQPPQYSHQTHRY
Test [17] concerns the target Calcium/calmodulin-dependent protein kinase type 1G (Homo sapiens) (UniProt Q96NX5). Kind of test: Binding affinity to wild-type human partial length CAMK1G (M1 to A342 residues) expressed in bacterial expression system assessed as residual binding level at 10 uM by Kinomescan method relative to control.
In test [18] the target is Serine/threonine-protein kinase 32B (Homo sapiens) (UniProt Q9NY57). Kind of test: Binding affinity to wild-type human full length YANK2 (M1 to S414 residues) expressed in bacterial expression system assessed as residual binding level at 10 uM by Kinomescan method relative to control.
Test [19] has as its system Phosphatidylinositol 4,5-bisphosphate 3-kinase catalytic subunit alpha isoform (Homo sapiens), P42336 [E545A]. Kind of test: Binding affinity to human partial length PIK3CA E545A mutant (R108 to N1068 residues) expressed in mammalian expression system assessed as residual binding level at 10 uM by Kinomescan method relative to control.
The target in test [20] is Mitogen-activated protein kinase 13 (Homo sapiens) (UniProt O15264). Kind of test: Binding affinity to wild-type human full length p38-delta (M1 to L365 residues) expressed in bacterial expression system assessed as residual binding level at 10 uM by Kinomescan method relative to control.
Test [21] has as its target Bone morphogenetic protein receptor type-1B (Homo sapiens) (UniProt O00238). Kind of test: Binding affinity to wild-type human partial length BMPR1B (D178 to L502 residues) expressed in mammalian expression system assessed as residual binding level at 10 uM by Kinomescan method relative to control.
The test system of test [22] is Tyrosine-protein kinase ABL1 (Homo sapiens), P00519 [Q252H]. Kind of test: Binding affinity to human phosphorylated ABL1 Q252H mutant expressed in mammalian expression system assessed as residual binding level at 10 uM by Kinomescan method relative to control.
Test [23] concerns the target SRSF protein kinase 1 (Homo sapiens) (UniProt Q96SB4). Kind of test: Binding affinity to wild-type human full length SRPK1 (M1 to S655 residues) expressed in bacterial expression system assessed as residual binding level at 10 uM by Kinomescan method relative to control.
Test [24] addresses 5'-AMP-activated protein kinase catalytic subunit alpha-2 (Homo sapiens) (UniProt P54646). Kind of test: Binding affinity to wild-type human partial length AMPK alpha2 (M1 to E306 residues) expressed in bacterial expression system assessed as residual binding level at 10 uM by Kinomescan method relative to control.

Chain of Calcium/calmodulin-dependent protein kinase type 1G (Homo sapiens) (Q96NX5 whole entry, the tested form may be a part): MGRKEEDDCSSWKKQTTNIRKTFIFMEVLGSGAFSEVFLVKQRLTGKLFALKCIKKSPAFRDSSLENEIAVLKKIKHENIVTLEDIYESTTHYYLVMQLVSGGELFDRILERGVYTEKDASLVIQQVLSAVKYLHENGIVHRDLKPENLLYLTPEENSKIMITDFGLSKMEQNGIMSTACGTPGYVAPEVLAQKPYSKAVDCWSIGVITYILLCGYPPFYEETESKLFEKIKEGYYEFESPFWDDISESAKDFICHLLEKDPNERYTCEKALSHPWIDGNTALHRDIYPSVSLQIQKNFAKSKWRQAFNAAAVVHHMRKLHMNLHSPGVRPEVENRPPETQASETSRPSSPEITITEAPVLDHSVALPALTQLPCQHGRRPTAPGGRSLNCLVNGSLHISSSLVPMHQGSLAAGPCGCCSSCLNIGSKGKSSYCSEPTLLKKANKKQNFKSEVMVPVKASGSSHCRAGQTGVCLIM

For the compound `CC(C)N1C(=O)C(NCCCN(C)C)=C(c2cn(C)c3ccccc23)C1=O.Cl`, the Activity was 98% in test [1]; 99% in [2]; 74% in test [3]; 100% in test [4]; 98% in test [5]; 80% in test [6]. The Activity in test [7] was determined as 89%; in [8] it was 93%; in [9], 77%; in [10], 98%; in test [11], 100%; in [12], 89%. In addition, the Activity in [13] was 88%; in [14], 91%; in [15] it was 98%; in [16] it was 100%; in test [17], 95%; in test [18], 99%. In addition, the Activity in [19] worked out at 95%; in [20] it was 100%; in test [21] it was 78%; in test [22], 84%; in test [23], 83%; in test [24], 89%.
